Reference: patent US20230189803A1, “COMPOSITIONS CONTAINING ORGANIC ACIDS AND THEIR ESTERS TO PREVENT MOLD CONTAMINATION IN ANIMAL FEED” (KEMIN INDUSTRIES, INC., priority 2021, published 2023)

Legend:
Format in all cases: cell-based
[1] = tested on: mold; test: CO2 study in barley samples, propylene glycol esters compared with other esters (Example 10); settings: barley 19.8% moisture, 0.02-0.08 mol/kg, molar basis
Method: (§1) Materials. The moisture level of barley samples was increased till 20.2%. [table] Statistical analysis. To determine significant differences in CO2-values (p<0.05), repeated measures analysis was performed by method of General Linear Models procedure (StatGraphics Centurion XV). The repeated measures statistical treatment of results was used because it can be used when change over time is assessed. Where significant differences resulted, Multiple Range Test was used to separate the means.

[2] = tested on: mold; test: CO2 study in barley samples, dose response of propionic acid esters as mold inhibitors (Example 9); settings: barley 20.2% moisture
Method: Materials. Barley was procured from a local supplier.
Efficacy. The moisture level of barley was determined before the start of the experiments4. The moisture level of the barley samples was adjusted to 20.2+/−0.5% by the addition of tap water. The barley samples, with the adjusted moisture content, were afterwards treated with the different extracted esters at different dose levels (0.02 mol/kg, 0.04 mol/kg, 0.06 mol/kg and 0.08 mol/kg). The untreated barley samples and samples treated with propionic acid (0.02 mol/kg-0.08 mol/kg) were included as controls. All barley samples were collected in closed plastic containers for evaluation of the CO2-production. The samples were stored at 25° C. The CO2-production in the headspace was monitored regularly during a 3-month period using the Edinburgh sensor Guardian NG. Three replicates were analyzed for each treatment.
as §1, with “Statistical” for “Materials. The moisture level of barley samples was increased till 20.2%. [table] Statistical”, “CO2-values values” for “CO2-values”

[3] = tested on: mold; test: CO2 study in soybean meal samples (Example 13); settings: 0.06 mol/kg, after one month of storage
Method: Efficacy on soybean meal. FIGS. 18 and 19 show the CO2 production (%) of the untreated soybean meal samples compared to the soybean meal samples treated with ester 1 and propionic acid at a dosage of 0.06 and 0.08 mol/kg, respectively. In the untreated samples, a fast increase in CO2 level was measured within the first days and the CO2 value stayed around 20% during the whole course of the trial. […] Samples treated with ester 1 and propionic acid at a dosage of 0.08 mol/kg were still completely stable after 84 days.

Row | Structure (SMILES) | efficacy in controlling mold growth (CO2 evolution), comparative [1] | CO2 increase compared to the esters ([2]; 0.06 mol/kg) | storage time for which samples stay stable / after which CO2 starts increasing ([2]; 0.08 mol/kg) | CO2 levels during storage [3]
1 | CC(=O)O [acetic acid] | less effective in controlling mold growth compared to propionic acid |  |  | 
2 | CCC(=O)O [propionic acid] |  | CO2 increased faster | 40 days | CO2 levels started to increase
